Assay: Photostability, illumination with high intensity mercury lamp
Format: physicochemical
Details: methanol solution; dissolved in methanol (4 mmol/l), mercury lamp 200-600 nm; read-out: Half-life of decomposition during illumination

half-life at 4 mmol/l: 1.08 h
SMILES: COc1cc(/C=C/C(=O)CC(=O)/C=C/c2ccc(O)c(OC)c2)ccc1O [curcumin]
